From patent publication US20260049072A1, “HETEROCYCLIC COMPOUND FOR INDUCING DEGRADATION OF MUTANT KRAS PROTEIN” (Astellas Pharma Inc., priority 2022, published 2026)

What was measured:
[1] = tested on: PA-TU-8902 cells; assay: Non-anchorage-dependent cell growth inhibition (spheroid 3D culture), PA-TU-8902; assay type: cell-based, human; conditions: Homo sapiens, PaTu 8902, 144 h; KRAS G12V mutant-positive, 3D spheroid, six days, CellTiter-Glo 2.0; read-out: PA-TU-8902 IC50
How it was run: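 Human pancreatic lines (PA-TU-8902 KRAS G12V, AsPC-1 G12D, MIA PaCa-2 G12C) grown as spheroids at 5×10^2 cells/well in low-adhesion round-bottom plates; MIA PaCa-2 in RPMI-1640 with 10% FBS. Compounds added next day (6-9 points, 3 μM to 0.3 nM final) for six days at 37 °C, 5% CO2. CellTiter-Glo luminescence, IC50 by Sigmoid-Emax regression versus DMSO and cell-free controls.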

[2] = tested on: phosphorylation of ERK (Thr202/Tyr204); assay: ERK phosphorylation inhibitory activity, cell ELISA, PA-TU-8902; assay type: cell-based; conditions: Homo sapiens, PaTu 8902; PA-TU-8902 cells, 24 hours, 100% = 300 nM trametinib; read-out: IC50 (ERK phosphorylation inhibition)
Protocol: Test Example 2: Evaluation of ERK Phosphorylation Inhibitory Activity on Human KRAS G12V Mutant-Positive Pancreatic Cancer Line PA-TU-8902
The ERK phosphorylation inhibitory activities of subject compounds were evaluated by measuring phosphorylation of the 202th threonine (Thr202) and the 204th tyrosine (Tyr204) of ERK located downstream of the KRAS signal by cell ELISA.
PA-TU-8902 cells were seeded at 36 µL/well on a 384-well plate (from Greiner bio-one) to give 5.0×10^3 cells per well. The cell culture conditions were the same conditions as in Test Example 1-1.
The next day, the subject compounds (9 points having final concentrations in the range of 3 μM to 0.3 nM), trametinib (MEK inhibitor) of a final concentration of 300 nM as a positive control and DMSO, which was the solvent for the subject compounds, as a negative control were diluted 100-fold with a fresh medium and were each added at 4 μL per well, followed by culturing for 24 hours. After culturing, a 30% glyoxal solution (40% glyoxal [from Nacalai Tesque] was diluted with PBS) was quickly added at 30 μL per well, and the plate was allowed to stand for an hour and 30 minutes at room temperature to thus immobilize the cells. Then, the plate was centrifuged (110×g, seven seconds, hereinafter centrifugation was performed under the same conditions unless otherwise specified) to remove the supernatant, and 0.1% Triton X-100-containing PBS was added at 20 μL per well. After allowing the plate to stand for 10 minutes at room temperature, the supernatant was removed by centrifugation, and the same operation was further repeated. Next, 0.5% SDS-containing PBS was added at 20 μL per well. The plate was allowed to stand at room temperature for 30 minutes and was then centrifuged to remove the supernatant. Subsequently, a blocking solution (Intercept Blocking Buffer) was added at 20 μL per well, and the plate was allowed to stand for an hour at room temperature. The supernatant was removed by centrifugation, and an ERK (Thr202/Tyr204) phosphorylation antibody (Phospho-p44/42 MAPK (Erk 1/2) (Thr202/Tyr204) (D13.14.4E) XP Rabbit mAb; from Cell Signaling Technology) diluted 2,500-fold with the blocking solution was added at 15 μL per well as a primary antibody. The plate was allowed to stand at 4° C. overnight.
The next day, the plate was centrifuged to remove the supernatant, and 0.05% Tween-20-containing PBS (from Thermo Scientific; 20×PBS Tween-20 was diluted 20-fold with ion exchange water and used) was added at 50 μL per well. The supernatant was removed by centrifugation to thus wash each well. The washing was performed three times in total. After washing, an anti-rabbit IgG antibody diluted 1,000-fold with the blocking solution was added at 15 μL per well as a secondary antibody, and the plate was allowed to stand for an hour at room temperature. The plate was centrifuged to remove the supernatant, and each well was washed three times with 0.05% Tween-20-containing PBS in the same manner as after the primary antibody reaction. Centrifugation after the third washing was performed at 171×g for 17 seconds. After removing the supernatant, the plate was dried as it was with air at room temperature for three hours or more, and the 800-nm fluorescent signals were measured with Aerius.
With the signaling value at the time of addition of DMSO taken as 0% inhibition and with the signaling value at the time of addition of 300 nM trametinib taken as 100% inhibition, the 50% inhibition values (IC50) were calculated by Sigmoid-Emax model nonlinear regression analysis.

| IC50 [2] [nM] | SMILES | IC50 [1] [nM] |
| --- | --- | --- |
| 10 | CO[C@@H](C)COc1cc(OC2CN(C(=O)N3CC(CN(C)C)C3)C2)c2cc(C3CC3)c(-c3c(C)c(F)cc4[nH]ncc34)c(OCc3ccc(-c4cn([C@H](C(=O)N5C[C@H](O)C[C@H]5C(=O)N[C@@H](CO)c5ccc(-c6scnc6C)cc5)C(C)C)nn4)cc3)c2n1 (atropisomer, axis not shown; (M)) [Example 14, (4R)-1-[(2S)-2-(4-{4-[({(7M)-6-cyclopropyl-4-[(1-{3-[(dimethylamino)methyl]azetidine-1-carbonyl}azetidin-3-yl)oxy]-7-(6-fluoro-5-methyl-1H-indazol-4-yl)-2-[(2S)-2-methoxypropoxy]quinolin-8-yl}oxy)methyl]phenyl}-1H-1,2,3-triazol-1-yl)-3-methylbutanoyl]-4-hydroxy-N-{(1R)-2-hydroxy-1-[4-(4-methyl-1,3-thiazol-5-yl)phenyl]ethyl}-L-prolinamide] | 47 |
| 7 | CO[C@@H](C)COc1cc(OC2CN(C(=O)N3CC(CN(C)C)C3)C2)c2cc(C3CC3)c(-c3c(C)c(F)cc4[nH]ncc34)c(OCc3ccc(-c4cn([C@H](C(=O)N5C[C@H](O)C[C@H]5C(=O)N[C@@H](CO)c5ccc(-c6ocnc6C)cc5)C(C)C)nn4)cc3)c2n1 (atropisomer, axis not shown; (M)) [Example 6, (4R)-1-[(2S)-2-(4-{4-[({(7M)-6-cyclopropyl-4-[(1-{3-[(dimethylamino)methyl]azetidine-1-carbonyl}azetidin-3-yl)oxy]-7-(6-fluoro-5-methyl-1H-indazol-4-yl)-2-[(2S)-2-methoxypropoxy]quinolin-8-yl}oxy)methyl]phenyl}-1H-1,2,3-triazol-1-yl)-3-methylbutanoyl]-4-hydroxy-N-{(1R)-2-hydroxy-1-[4-(4-methyl-1,3-oxazol-5-yl)phenyl]ethyl}-L-prolinamide] | 32 |
| 11 | Cc1ncsc1-c1ccc([C@H](CO)NC(=O)[C@@H]2C[C@@H](O)CN2C(=O)[C@H](C(C)C)n2cc(-c3ccc(COc4c(-c5c(C)c(F)cc6[nH]ncc56)c(C5CC5)cc5c(N6CC[C@H]6C(N)=O)nc(OC6CCOCC6)nc45)cc3)nn2)cc1 [Example 35] | 32 |
| 12 | COC(C)(C)COc1cc(OC2CN(C(=O)N3CC(CN(C)C)C3)C2)c2cc(C3CC3)c(-c3c(C)c(F)cc4[nH]ncc34)c(OCc3ccc(-c4cn([C@H](C(=O)N5C[C@H](O)C[C@H]5C(=O)N[C@@H](CO)c5ccc(-n6cncn6)cc5)C(C)C)nn4)cc3)c2n1 (atropisomer, axis not shown) [Example 9] | 53 |
| 33 | CNCCNC(=O)N1CC(Oc2nc(OC[C@H](C)OC)nc3c(OCc4ccc(-c5cn([C@H](C(=O)N6C[C@H](O)C[C@H]6C(=O)N[C@@H](CO)c6ccc(-c7scnc7C)cc6)C(C)C)nn5)cc4)c(-c4c(C)c(F)cc5[nH]ncc45)c(C4CC4)cc23)C1 (atropisomer, axis not shown) [Example 18] | 69 |
